Legend:
tobacco cutworm [1] = settings: U.S. Patent No. 3,969,438; cited from earlier work
smaller tea tortrix = settings: U.S. Patent No. 3,969,438; cited from earlier work
rice stem borer [2] = settings: U.S. Patent No. 3,969,438; cited from earlier work
diamond back moth [3] = settings: U.S. Patent No. 3,969,438; cited from earlier work
apple leaf miner = settings: U.S. Patent No. 3,969,438; cited from earlier work
rice stem borer [4] = assay: Insecticidal effect on rice stem borer, 3rd-instar larvae (rice seedling dip); format: in vivo, Chilo suppressalis; settings: Table 1; 500 ppm; after 72 hours, 25°C; wettable powder as Formulation Example 5
Summary of the method: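 Wettable-powder formulations were diluted in water to set concentrations, and rice seedlings were dipped in them. Ten 3rd-instar larvae were placed per capped cup with the treated seedlings and held at 25°C.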

tobacco cutworm [5] = assay: Insecticidal effect on tobacco cutworm (cabbage leaf dip); format: in vivo, Prodenia litura; settings: Table 3; 500 ppm; after 48 hours, 25°C; emulsifiable concentrate as Formulation Example 1
Summary of the method: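 Cabbage leaves dipped in water-diluted emulsifiable concentrate (two formulations, tests A and B) and air-dried were fed to 3rd-instar tobacco cutworm larvae at 25°C. Percent mortality scored after 48 hours; 3 replicates of 30 insects per compound.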

diamond back moth [6] = assay: Insecticidal effect on diamond-back moth (cabbage leaf dip); format: in vivo, Plutella xylostella; settings: Table 7; 100 ppm; after 72 hours, 25°C; emulsifiable concentrate as Formulation Example 1
Summary of the method: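 Cabbage leaves dipped 10 s in water-diluted emulsifiable concentrate at set concentration, air-dried; thirty 3rd-instar diamond-back moth larvae per cup held at 25°C. Percent mortality scored after 72 h, three replicates per treatment.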

carmine mites = assay: Miticidal effect on carmine mite (sprayed kidney bean seedling); format: in vivo, Tetranychus cinnabarius; settings: 500 ppm
Procedure: An emulsifiable concentrate prepared as described in Formulation Example 1 and diluted to a predetermined concentration was sprayed using a spray-gun on a seedling of a kidney bean placed in a pot of 12 cm in diameter to which plant carmine mites were parasitic. After drying in air, seedlings were kept in a green house, and the number of living insects was recorded on the 7th, 14th, 21st and 28th day from the day of application to determine the control effects. Three pots were used for each treatment. The control effect was assessed by the following formula: [formula] • wherein Σ indicates sum and Cb, Tb, Cai and Tai have the following meanings. • Cb: Number of living mites in non-treated sample before application. • Tb: Number of living mites in treated sample before application. • Cai: Number of living mites in non-treated sample 7th, 14th, 21 st or 28th day from the application. • Tai: Number of living mites in treated sample 7th, 14th, 21st or 28th day from the application.

[7] = test system: carmine mites resistant to Kelthane; assay: Miticidal effect on carmine mite resistant to Kelthane (sprayed egg plant seedling); format: in vivo, Tetranychus cinnabarius; settings: 500 ppm; for Number of Living Mites after Application 7th Day / Number of Living Mites after Application 14th Day / Number of Living Mites after Application 21st Day / Number of Living Mites after Application 28th Day: egg plant seedling; for Control Effect (%): from mite counts on 7th, 14th, 21st and 28th day
Procedure: (§1) (A) An emulsifiable concentrate prepared as described in Formulation Example 1 and diluted to a predetermined concentration was sprayed using a spray-gun on a seedling of an egg plant placed in a pot of 12 cm in diametre to which plant carmine mites resistant to Kelthane were parasitic. After drying in air, seedlings were kept in a green house, and the number of living insects was recorded on the 7th, 14th, 21 st and 28th day from the day of application to determine the control effects. Three pots were used for each treatment. The control effect was assessed by the formula described in TEST EXAMPLE 7 above. Further, phytotoxicity was observed visually on the 7th day after the application.
as §1, with “(B) An” for “(A) An”, “Example 3” for “Example 1”, “in diameter” for “in diametre”, “in Test” for “in TEST”

egg plant [8] = assay: Phytotoxicity observed visually in the mite test on egg plant; format: in vivo; design: key: —: None; +: Slightly toxic; ++: Toxic; +++: Strongly toxic; settings: 500 ppm, observed visually on the 7th day after the application
Procedure: as §1
as §1, with “(B) An” for “(A) An”, “Example 3” for “Example 1”, “in diameter” for “in diametre”, “in Test” for “in TEST”

Apple = assay: Phytotoxicity on various crops; format: in vivo; design: key: Symbol — indicates that no toxicity was observed; settings: 500 ppm sprayed; checked visually after 10 days
Summary of the method: (§2)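 Emulsifiable concentrate diluted in water to 500 ppm active ingredient and spray-gun applied to plants until thoroughly covered. Plants held in a greenhouse; phytotoxicity scored visually 10 days after application. Three replicates per compound.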

Beet = assay: Phytotoxicity on various crops; format: in vivo; design: key: Symbol — indicates that no toxicity was observed; settings: 500 ppm sprayed; checked visually after 10 days
Summary of the method: as §2

Cabbage = assay: Phytotoxicity on various crops; format: in vivo; design: key: Symbol — indicates that no toxicity was observed; settings: 500 ppm sprayed; checked visually after 10 days
Summary of the method: as §2

Cotton = assay: Phytotoxicity on various crops; format: in vivo; design: key: Symbol — indicates that no toxicity was observed; settings: 500 ppm sprayed; checked visually after 10 days
Summary of the method: as §2

Cucumber = assay: Phytotoxicity on various crops; format: in vivo; design: key: Symbol — indicates that no toxicity was observed; settings: 500 ppm sprayed; checked visually after 10 days
Summary of the method: as §2

Green Pepper = assay: Phytotoxicity on various crops; format: in vivo; design: key: Symbol — indicates that no toxicity was observed; settings: 500 ppm sprayed; checked visually after 10 days
Summary of the method: as §2

Kidney Bean = assay: Phytotoxicity on various crops; format: in vivo; design: key: Symbol — indicates that no toxicity was observed; settings: 500 ppm sprayed; checked visually after 10 days
Summary of the method: as §2

Rice = assay: Phytotoxicity on various crops; format: in vivo; design: key: Symbol — indicates that no toxicity was observed; settings: 500 ppm sprayed; checked visually after 10 days
Summary of the method: as §2

Tea = assay: Phytotoxicity on various crops; format: in vivo; design: key: Symbol — indicates that no toxicity was observed; settings: 500 ppm sprayed; checked visually after 10 days
Summary of the method: as §2

Tomato = assay: Phytotoxicity on various crops; format: in vivo; design: key: Symbol — indicates that no toxicity was observed; settings: 500 ppm sprayed; checked visually after 10 days
Summary of the method: as §2

egg plant [9] = assay: Phytotoxicity on various crops; format: in vivo; design: key: Symbol — indicates that no toxicity was observed; settings: 500 ppm sprayed; checked visually after 10 days
Summary of the method: as §2

[10] = Table 13, Formulation Example 1
[11] = Table 14, Formulation Example 3

Structure (SMILES)	Percent Mortality (%) (rice stem borer [4])	Percent Mortality (%) (tobacco cutworm [5])	Percent Mortality (%) (diamond back moth [6])	Number of Living Mites after Application 7th Day [7, 10]	Number of Living Mites after Application 14th Day [7, 10]	Number of Living Mites after Application 21st Day [7, 10]	Number of Living Mites after Application 28th Day [7, 10]	Control Effect (%) ([7]; Table 13)	Phytotoxicit (egg plant [8]; Table 13)	Phytotoxicity: Apple (Apple)	Phytotoxicity: Beet (Beet)	Phytotoxicity: Cabbage (Cabbage)	Phytotoxicity: Cotton (Cotton)	Phytotoxicity: Cucumber (Cucumber)	Phytotoxicity: Green Pepper (Green Pepper)	Phytotoxicity: Kidney Bean (Kidney Bean)	Phytotoxicity: Rice (Rice)	Phytotoxicity: Tea (Tea)	Phytotoxicity: Tomato (Tomato)	Phytotoxicity: Egg Plant (egg plant [9])	further results
CCCSP(=O)(OCC)Oc1ccc2c(C)cc(=O)oc2c1 (stereo not shown)																					pesticidal effect on tobacco cutworm (tobacco cutworm [1]): to some extent; pesticidal effect on smaller tea tortrix (smaller tea tortrix): to some extent; pesticidal effect on rice stem borer (rice stem borer [2]): to some extent; pesticidal effect on diamond back moth (diamond back moth [3]): to some extent; pesticidal effect on apple leaf miner (apple leaf miner): less effective
CCOP(=O)(Oc1ccc2c(c1)OC(C)=CC2(C)C)SC(C)CC (stereo not shown) [compound 6]	100	100	100	0	0	10	54	96.4	—	—	—	—	—	—	—	—	—	—	—	—	Control Effect (%) (carmine mites): 94.9%; Number of Living Mites after Application 7th Day (carmine mites): 0; Number of Living Mites after Application 14th Day (carmine mites): 0; Number of Living Mites after Application 21st Day (carmine mites): 4; Number of Living Mites after Application 28th Day (carmine mites): 45
OC(c1ccc(Cl)cc1)(c1ccc(Cl)cc1)C(Cl)(Cl)Cl [Kelthane, 2,2,2-trichloro-1,1-bis(4-chlorophenyl)ethanol, reference compound]				32	0	118	269	61.5	+++(*)												Control Effect (%) (carmine mites; Table 12, from mite counts on 7th, 14th, 21st and 28th day): 99.0%; Number of Living Mites after Application 7th Day (carmine mites; Table 12, kidney bean seedling): 0; Number of Living Mites after Application 14th Day (carmine mites; Table 12, kidney bean seedling): 0; Number of Living Mites after Application 21st Day (carmine mites; Table 12, kidney bean seedling): 5; Number of Living Mites after Application 28th Day (carmine mites; Table 12, kidney bean seedling): 15; Number of Living Mites after Application 7th Day [7, 11]: 31; Number of Living Mites after Application 14th Day [7, 11]: 58; Number of Living Mites after Application 21st Day [7, 11]: 156; Number of Living Mites after Application 28th Day [7, 11]: 301; Control Effect (%) ([7]; Table 14): 32.3%; Phytotoxicit (egg plant [8]; Table 14): +++(*)
CCOP(=S)(Oc1ccc2c(c1)OC(C)=CC2(C)C)SC(C)CC (stereo not shown) [compound 11]	100	100	100	0	3	10	48	97.0	—	—	—	—	—	—	—	—	—	—	—	—	Number of Living Mites after Application 7th Day [7, 11]: 0; Number of Living Mites after Application 14th Day [7, 11]: 2; Number of Living Mites after Application 21st Day [7, 11]: 17; Number of Living Mites after Application 28th Day [7, 11]: 56; Control Effect (%) ([7]; Table 14): 93.1%; Phytotoxicit (egg plant [8]; Table 14): —

— patent EP0054589B1, “Organic phosphoric acid ester derivatives, a process for preparing the same and insecticidal, miticidal or nematocidal compositions containing the same” (priority 1980, dated 1982)
